“Also recorded” adds a separate entry of the source.
How the values were obtained:
A. thaliana = assay: Growth and toxicity tests on A. thaliana (genotype not stated); format: in vivo; settings: for Effect on growth of A. thaliana: in vivo
From the text: (§1) Presumably endogenous transaminase may be specific for the L-enantiomer, so the corresponding D-enantiomer is not metabolized in wildtype plants, but only in plants expressing DAAO. […] The toxicity of some D-amino acids on organisms is not well understood, and has only occasionally been studied in plants (Gamburg K Z & Rekoslavskaya N I (1991) Fiziologiya Rastenii 38, 1236-1246). Apart from A. thaliana, we have also tested the susceptibility of other plant species to D-serine, including poplar, tobacco, barley, maize, tomato and spruce. We found all tested species susceptible to D-serine at concentrations similar to those shown to be toxic for A. thaliana. A proposed mechanism for D-serine toxicity in bacteria is competitive inhibition of […] coupling to pantoic acid, thus inhibiting formation of pantothenic acid (Cosloy S D & McFall E (1973) J. Bacteriol. 114, 685-694). […] A second putative cause of D-amino acid toxicity is through competitive binding to tRNA. […] Genes similar to that encoding bacterial deacylase have also been identified. in A. thaliana (Soutourina J et al. (1996) J. Biol. Chem. 274, 19109-19114), corroborating the possibility that the mode of toxic action of D-amino acids might be through competitive binding to tRNA.

DAAO transgenic plants = assay: Germination of DAAO transgenic plants on D-Asn; format: in vivo; settings: 30 mM
From the text: The D-amino acid oxidase of the invention may be expressed in the cytosol, peroxisome, or other intracellular compartment of the plant cell. Compartmentalisation of the D-amino acid metabolising polypeptide may be achieved by fusing the nucleic acid sequence encoding the DAAO polypeptide to a sequence encoding a transit peptide to generate a fusion protein. Gene products expressed without such transit peptides generally accumulate in the cytosol. The localization of expressed DAAO in the peroxisome produces H2O2 that can be metabolised by the H2O2 degrading enzyme catalase. Higher levels of D-amino acids may therefore be required to produce damaging levels of H2O2. Expression of DAAO in the cytosol, where levels of catalase activity are lower, reduces the amount of D-amino acid required to produce damaging levels H2O2. Expression of DAAO in the cytosol may be achieved by removing peroxisome targeting signals or transit peptides from the encoding nucleic acid sequence. For example, the dao1 gene (EC: 1.4.3.3: GenBank Acc.-No.: U60066) from the yeast Rhodotorula gracilis (Rhodosporidium toruloides) was cloned as described (WO 03/060133). The last nine nucleotides encode the signal peptide SKL, which guides the protein to the peroxisome sub-cellular organelle.

[1] = tested on: wild-type Arabidopsis thaliana; assay: Growth of wild-type A. thaliana plantlets on medium with D-amino acids; format: in vivo; settings: for Effect on plant growth (FIG. 3): 3 mM in half-concentrated Murashige-Skoog medium, wild type plantlets; for Growth of wild-type plants on selection media: immediately after the cotyledons had emerged; for Growth of wild-type plants (FIG. 4): various concentrations in half-strength MS, 10 d after germination
Method: Wild type Arabidopsis thaliana plantlets were grown on half-concentrated Murashige-Skoog medium (0.5% (wt/vol) sucrose, 0.8% (wt/vol) agar) supplemented with the indicated D-amino acid at either 3 mM (Panel A) or 30 mM (Panel B).
(§2) FIG. 4 D-amino acid dose responses of dao1 transgenic and wild-type A. thaliana. (a-d) Growth of dao1 transgenic line 3:7 (white), 10:7 (light gray), 13:4 (gray) and wild-type (black) plants, in fresh weight per plant, on media containing various concentrations of D-serine, D-alanine, D-isoleucine and D-valine in half-strength MS with 0.5% (wt/vol) sucrose and 0.8% (wt/vol) agar. Different concentration ranges were used for different ID-amino acids. The plants were grown for 10 d after germination under 16 h photoperiods at 24° C.; n=10±s.e.m., except for plants grown on D-isoleucine, where smaller Petri dishes were used, (n=6±s.e.m.).
(§3) T1 seeds of transgenic Arabidopsis plants were surface-sterilized and sown in Petri plates that were sealed with gas-permeable tape. The growth medium was half strength MS19 with 0.5% (wt/vol) sucrose and 0.8% (wt/vol) agar, plus 3 mM D-alanine, 3 mM D-serine or 50 μg/ml kanamycin as the selective agent. Plants were grown for 5 d after germination with a 16 h photoperiod at 24° C. To evaluate the selection efficiency on different substrates, 2,074, 1,914 and 1,810 T1 seeds were sown on D-alanine-, D-serine- and kanamycin-selective plates, respectively, and the number of surviving seedlings was counted (44, 32 and 43, respectively).

Transgenic seedlings = assay: Foliar application on transgenic seedlings; parameters: species or system A. thaliana; settings: in vivo
From the text: (§4) Selection of seedlings on media containing D-alanine or D-serine was very rapid compared to selection on kanamycin. […] Therefore, transformants could be distinguished from non-transformed plants directly after germination. The difference between wild-type and transgenic plants after D-amino acid selection was unambiguous, with no intermediate phenotypes. In contrast, intermediate phenotypes are common when kanamycin resistance is used as a selection marker. […] Transgenic seedlings were resistant to foliar application of D-alanine or D-serine, so selection on soil was possible.

[2] = tested on: T1 seeds of transgenic Arabidopsis plants; assay: Selection of T1 seeds on selective media; format: in vivo; settings: for Number of surviving seedlings: 2,074, 1,914 and 1,810 T1 seeds sown on D-alanine (3 mM), D-serine (3 mM) and kanamycin (50 μg/ml) plates, 5 d after germination; for Transformation frequencies found on the selective media: kanamycin 50 μg/ml, D-alanine 3 mM, D-serine 3 mM
Method: as §3
(§5) The T-DNA contained both 35S:dao1 and pNos:nptII, allowing D-amino acid and kanamycin selection to be compared in the same lot of seeds.

wild-type seedlings = assay: Sprayed (foliar) application on wild-type seedlings; format: in vivo, A. thaliana; settings: one-week-old seedlings, sprayed on three consecutive days, 50 mM
From the text: as §4

[3] = tested on: dao1 transgenic A. thaliana; assay: Growth of dao1 (DAAO) transgenic A. thaliana on medium with D-amino acids; format: in vivo, Arabidopsis thaliana; settings: for Effect on the transgenic plants: concentration of 30 mM; for Development of transgenic plants under selection conditions: in vivo
Method: as §2, §3, §5
Therefore, plants containing the construct were tested as described above on two sets of media, one containing D-isoleucine and the other containing D-valine at various concentrations, to assess whether DAAO could also be used as a counter-selection marker. Unambiguous counter-selection selection was achieved when seeds were sown on either D-isoleucine or D-valine at concentrations greater than 10 mM (FIG. 4 c,d).

maize = assay: Susceptibility of other plant species to D-serine; format: in vivo; settings: concentrations similar to those toxic for A. thaliana
From the text: as §1

poplar = assay: Susceptibility of other plant species to D-serine; format: in vivo; settings: concentrations similar to those toxic for A. thaliana
From the text: as §1

barley = assay: Susceptibility of other plant species to D-serine; format: in vivo; settings: concentrations similar to those toxic for A. thaliana
From the text: as §1

spruce = assay: Susceptibility of other plant species to D-serine; format: in vivo; settings: concentrations similar to those toxic for A. thaliana
From the text: as §1

tomato = assay: Susceptibility of other plant species to D-serine; format: in vivo; settings: concentrations similar to those toxic for A. thaliana
From the text: as §1

tobacco = assay: Susceptibility of other plant species to D-serine; format: in vivo; settings: concentrations similar to those toxic for A. thaliana
From the text: as §1

DAAO = target: T1, DAAO (Rhodotorula toruloides, UniProt P80324); assay: DAAO incubation of cell-free plant extracts, keto acid production by HPLC; format: biochemical, Rhodotorula gracilis; settings: cell-free extracts from dao1 transgenic line 10:7
T1 construct: expressed in transfected cells; host or cells: Arabidopsis thaliana (Col-0), dao1 transgenic line 10:7, transformed with pPCV702:dao1 (CaMV 35S); crude soluble protein extract
T1 sequence (P80324 25-368): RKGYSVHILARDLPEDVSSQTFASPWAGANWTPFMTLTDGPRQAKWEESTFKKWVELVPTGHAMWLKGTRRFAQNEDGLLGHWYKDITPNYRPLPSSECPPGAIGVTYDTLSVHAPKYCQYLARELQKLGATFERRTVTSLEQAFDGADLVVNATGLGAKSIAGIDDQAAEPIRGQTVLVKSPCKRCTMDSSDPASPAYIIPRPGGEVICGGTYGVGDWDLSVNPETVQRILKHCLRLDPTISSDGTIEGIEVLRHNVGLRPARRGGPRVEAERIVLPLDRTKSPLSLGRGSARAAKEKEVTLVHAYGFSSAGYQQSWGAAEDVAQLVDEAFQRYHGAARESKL
Method: Soluble proteins were extracted by shaking 0.1 g samples of plant material that had been finely pulverized in a 1.5 ml Eppendorf tube in 1 ml of 0.1 M potassium phosphate buffer, pH 8. DAAO activity was then assayed as follows. Reaction mixtures were prepared containing 2,120 μl of 0.1 M potassium phosphate buffer, pH 8, 80 μl of crude protein extract and 100 μl of 0.3 M D-alanine. The samples were incubated for 2 h at 30° C. The enzyme activity was then assessed, by measuring the increase in absorbance at 220 nm (E=1.090 M^−1 cm^−1) associated with the conversion of D-alanine to pyruvate, after transferring the test tubes to boiling water for […] to stop the reaction. In control reactions, D-alanine was added immediately before boiling. One unit of DAAO activity is defined as the turnover of one micromole of substrate per minute, and activity was expressed per gram plant biomass (fresh weight). The breakdown of D-isoleucine and D-valine in DAAO incubations, and the associated production of 3-methyl-2-oxopentanoate and 3-methyl-2-oxobutanoate, were analyzed by high-performance liquid chromatography. In other respects the reactions were carried out as described above.
Presumably endogenous transaminase may be specific for the L-enantiomer, so the corresponding D-enantiomer is not metabolized in wildtype plants, but only in plants expressing DAAO. […]

CC(C)C(=O)C(=O)O [3-methyl-2-oxobutanoate, 3-methyl-2-oxobutanoate]
Effect on growth of A. thaliana (A. thaliana): impaired growth

CCC(C)C(=O)C(=O)O (stereo not drawn) [3-methyl-2-oxopentanoate]
Effect on growth of A. thaliana (A. thaliana): impaired growth

NC(=O)C[C@@H](N)C(=O)O [D-Asn, D-asparagine]
Inhibition of germination of DAAO transgenic plants (cytosolic and peroxisomal constructs) (DAAO transgenic plants): inhibited significantly more than the wild-type

C[C@@H](N)C(=O)O [D-alanine]
Effect on plant growth (FIG. 3) [1]: severe phytotoxic effects
Growth of wild-type plants on selection media [1]: inhibited growth
Effect on wild-type plantlets (FIG. 2) ([1]; treated with 30 mM): toxic effect
Growth of wild-type plants (FIG. 4) [1]: inhibited even at quite low concentrations
Response of transgenic seedlings to foliar application (Transgenic seedlings): resistant
Number of surviving seedlings [2]: 44
Transformation frequencies found on the selective media [2]: 2.12%
Effect of sprayed application on wild-type seedlings (wild-type seedlings): effectively killed
Effect on the transgenic plants [3]: no negative effect
Development of transgenic plants under selection conditions [3]: developed normally
Effect on transgenic plantlets comprising DAAO gene (FIG. 2) ([3]; treated with 30 mM): no severe damage

N[C@H](CO)C(=O)O [D-serine]
Effect on plant growth (FIG. 3) [1]: severe phytotoxic effects
Growth of wild-type plants on selection media [1]: inhibited growth
Growth of wild-type plants (FIG. 4) [1]: inhibited even at quite low concentrations
Response of transgenic seedlings to foliar application (Transgenic seedlings): resistant
Number of surviving seedlings [2]: 32
Concentration at which efficient selection was achieved (FIG. 4a) ([2]; in vivo): lower than 1 mM
Transformation frequencies found on the selective media [2]: 1.67%
Effect of sprayed application on wild-type seedlings (wild-type seedlings): effectively killed
Effect on growth of the transgenic plants ([3]; 3 mM): slightly inhibited the growth
Effect on the transgenic plants [3]: significant growth inhibition
Development of transgenic plants under selection conditions [3]: developed normally
Susceptibility of maize (maize): susceptible
Susceptibility of poplar (poplar): susceptible
Susceptibility of barley (barley): susceptible
Susceptibility of spruce (spruce): susceptible
Susceptibility of tomato (tomato): susceptible
Susceptibility of tobacco (tobacco): susceptible
Mitigation of toxicity in A. thaliana by pantothenic acid or a-alanine (A. thaliana; pantothenic acid or a-alanine provided): could not be mitigated

CC(C)[C@@H](N)C(=O)O [D-valine]
Effect on wild-type plants at higher concentrations (FIG. 4d) ([1]; higher concentrations): moderately negative effect
Growth of wild-type plants (FIG. 4) [1]: not toxic; also recorded: minor effects; also recorded: not the wild-type plants
Growth of plants expressing DAAO (FIG. 4) ([3]; various concentrations in half-strength MS, 10 d after germination): strong negative influence on the growth; also recorded: inhibit growth
Increase in production of 3-methyl-2-oxobutanoate compared to extracts of wild-type plants (DAAO): 7 fold

CC[C@H](C)[C@H](N)C(=O)O [L-isoleucine]
Effects on wildtype plants ([1]; in vivo): negative effects

NC[C@H]1O[C@H](O[C@H]2[C@H](O)[C@@H](O[C@H]3O[C@H](CO)[C@@H](O)[C@H](N)[C@H]3O)[C@H](N)C[C@@H]2N)[C@H](O)[C@@H](O)[C@@H]1O [kanamycin]
Number of surviving seedlings [2]: 43
Transformation frequencies found on the selective media [2]: 2.37%

— patent US20080039328A1, “Post Harvest Control of Genetically Modified Crop Growth Employing D-Amino Acid Compounds” (BASF PLANT SCIENCE GMBH, priority 2004, published 2008)
